Measured values published in patent US11123337B2, “4-methylsulfonyl-substituted piperidine urea compounds” (MYOKARDIA, INC., priority 2015, dated 2021).

Target: bovine cardiac myosin (Bos taurus, UniProt Q9BE39)
Experiment: Myosin activation assay (PK/LDH-coupled ATPase, bovine cardiac myofibrils)
Type: biochemical
Conditions: AC20 = concentration at which total response is increased by twenty percent
Summary of the method: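 Skinned bovine cardiac myofibrils (1 mg/mL) in PIPES/MgCl2 buffer pH 6.8 at free Ca2+ giving ~50% (pCa ~6) or <5% (pCa 10) activation, with 50 μM ATP and 3.3% DMSO. ATPase rate from NADH absorbance at 340 nm (PK/LDH coupling) over 15 min at ambient temperature. AC20/AC50 from a four-parameter fit of DMSO-normalised rates.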

Chain of bovine cardiac myosin (Q9BE39 whole entry): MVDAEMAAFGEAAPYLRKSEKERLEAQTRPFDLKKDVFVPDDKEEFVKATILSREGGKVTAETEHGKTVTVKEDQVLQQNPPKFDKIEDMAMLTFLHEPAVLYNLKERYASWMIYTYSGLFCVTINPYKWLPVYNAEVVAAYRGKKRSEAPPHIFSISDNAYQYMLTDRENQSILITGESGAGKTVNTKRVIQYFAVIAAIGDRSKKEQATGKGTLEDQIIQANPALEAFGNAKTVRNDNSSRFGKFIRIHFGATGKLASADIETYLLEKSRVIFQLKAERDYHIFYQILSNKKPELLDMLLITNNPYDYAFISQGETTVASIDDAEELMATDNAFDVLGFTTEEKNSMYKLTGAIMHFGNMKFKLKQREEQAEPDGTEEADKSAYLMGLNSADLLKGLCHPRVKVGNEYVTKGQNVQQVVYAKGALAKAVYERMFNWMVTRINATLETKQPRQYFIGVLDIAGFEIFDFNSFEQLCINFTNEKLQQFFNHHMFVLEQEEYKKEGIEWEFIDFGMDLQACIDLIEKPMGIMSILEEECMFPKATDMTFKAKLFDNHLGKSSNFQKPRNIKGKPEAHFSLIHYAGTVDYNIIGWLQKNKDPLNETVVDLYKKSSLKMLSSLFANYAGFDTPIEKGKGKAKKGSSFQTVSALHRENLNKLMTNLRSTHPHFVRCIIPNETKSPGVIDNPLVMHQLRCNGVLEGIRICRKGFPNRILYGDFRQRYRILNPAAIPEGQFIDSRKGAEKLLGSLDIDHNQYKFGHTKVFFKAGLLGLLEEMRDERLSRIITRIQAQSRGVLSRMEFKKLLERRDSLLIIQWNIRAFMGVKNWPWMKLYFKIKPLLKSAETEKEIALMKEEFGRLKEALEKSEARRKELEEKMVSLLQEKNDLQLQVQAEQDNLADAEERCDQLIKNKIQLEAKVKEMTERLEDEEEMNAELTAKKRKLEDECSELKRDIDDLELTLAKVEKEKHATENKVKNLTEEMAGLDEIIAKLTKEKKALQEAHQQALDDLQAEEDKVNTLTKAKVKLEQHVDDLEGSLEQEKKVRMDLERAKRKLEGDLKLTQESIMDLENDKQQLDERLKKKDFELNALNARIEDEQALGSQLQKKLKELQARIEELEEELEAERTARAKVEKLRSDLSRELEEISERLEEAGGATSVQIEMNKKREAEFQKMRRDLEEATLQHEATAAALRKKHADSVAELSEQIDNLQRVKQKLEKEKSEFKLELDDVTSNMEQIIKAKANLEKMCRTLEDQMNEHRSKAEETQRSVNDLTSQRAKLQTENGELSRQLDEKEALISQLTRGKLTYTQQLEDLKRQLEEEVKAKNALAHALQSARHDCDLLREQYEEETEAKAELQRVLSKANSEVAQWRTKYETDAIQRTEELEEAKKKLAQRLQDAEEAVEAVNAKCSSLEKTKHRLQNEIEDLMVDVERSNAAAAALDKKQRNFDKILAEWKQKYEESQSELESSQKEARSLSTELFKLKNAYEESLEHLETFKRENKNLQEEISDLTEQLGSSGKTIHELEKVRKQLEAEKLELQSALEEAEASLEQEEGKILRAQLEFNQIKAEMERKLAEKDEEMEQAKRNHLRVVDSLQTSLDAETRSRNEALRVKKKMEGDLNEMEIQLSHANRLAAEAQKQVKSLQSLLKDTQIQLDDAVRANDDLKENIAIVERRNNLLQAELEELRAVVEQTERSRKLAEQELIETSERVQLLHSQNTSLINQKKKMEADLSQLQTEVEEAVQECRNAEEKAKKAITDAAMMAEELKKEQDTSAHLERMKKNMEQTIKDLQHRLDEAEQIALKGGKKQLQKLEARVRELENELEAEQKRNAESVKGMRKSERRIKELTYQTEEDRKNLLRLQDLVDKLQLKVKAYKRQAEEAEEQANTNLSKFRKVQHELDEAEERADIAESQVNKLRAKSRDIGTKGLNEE
Chain of bovine cardiac myosin (P85100 whole entry partner): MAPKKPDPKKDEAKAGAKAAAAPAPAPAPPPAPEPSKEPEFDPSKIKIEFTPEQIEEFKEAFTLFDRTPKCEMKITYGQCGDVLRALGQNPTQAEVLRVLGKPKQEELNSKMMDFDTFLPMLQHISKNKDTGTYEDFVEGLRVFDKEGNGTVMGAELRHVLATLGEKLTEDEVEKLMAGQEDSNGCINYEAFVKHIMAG
Chain of bovine cardiac myosin (Q3SZE5 whole entry partner): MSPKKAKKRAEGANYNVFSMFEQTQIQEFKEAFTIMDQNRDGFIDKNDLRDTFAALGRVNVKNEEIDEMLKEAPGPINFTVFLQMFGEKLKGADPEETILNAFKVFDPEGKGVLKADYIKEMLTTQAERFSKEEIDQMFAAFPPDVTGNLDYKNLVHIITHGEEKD

N#Cc1ccccc1S(=O)(=O)C1(C2CCN(C(=O)Nc3ccnnc3)CC2)CC1 [Compound 200, 4-(1-((2-cyanophenyl)sulfonyl)cyclopropyl)-N-(pyridazin-4-yl)piperidine-1-carboxamide]
Myosin Activation (AC20): ++ (++ represents myosin activation value AC20 from 2 μM-5 μM)

CC(C)(C1CCN(C(=O)Nc2ccnnc2)CC1)S(=O)(=O)c1ccccc1C(F)(F)F [Compound 195, N-(pyridazin-4-yl)-4-(2-((2-(trifluoromethyl)phenyl)sulfonyl)propan-2-yl)piperidine-1-carboxamide]
Myosin Activation (AC20): ++ (++ represents myosin activation value AC20 from 2 μM-5 μM)

Cn1cc(S(=O)(=O)[C@@](C)(F)C2CCN(C(=O)Nc3ccc(C(N)=O)nc3)CC2)c(C(F)F)n1 [Compound 300, (R)-5-(4-(1-((3-(difluoromethyl)-1-methyl-1H-pyrazol-4-yl)sulfonyl)-1-fluoroethyl)piperidine-1-carboxamido)picolinamide]
Myosin Activation (AC20): ++ (++ represents myosin activation value AC20 from 2 μM-5 μM)

Cc1ccc(NC(=O)N2CCC(C(F)(F)S(=O)(=O)c3cn(C)nc3C(F)F)CC2)cn1 [Compound 80, 4-(((3-(difluoromethyl)-1-methyl-1H-pyrazol-4-yl)sulfonyl)difluoromethyl)-N-(6-methylpyridin-3-yl)piperidine-1-carboxamide]
Myosin Activation (AC20): + (+ represents myosin activation value AC20 > 5 μM)

CC(F)(C1CCN(C(=O)Nc2ccc(F)nc2)CC1)S(=O)(=O)c1cccc(C#N)c1 (stereo not drawn) [Compound 241, 4-(1-((3-cyanophenyl)sulfonyl)-1-fluoroethyl)-N-(6-fluoropyridin-3-yl)piperidine-1-carboxamide]
Myosin Activation (AC20): + (+ represents myosin activation value AC20 > 5 μM)

C[C@@H](O)c1cc(NC(=O)N2CCC([C@@](C)(F)S(=O)(=O)c3cn(C)nc3C(F)F)CC2)ccn1 [Compound 304, 4-((S)-1-((3-(difluoromethyl)-1-methyl-1H-pyrazol-4-yl)sulfonyl)-1-fluoroethyl)-N-(2-((R)-1-hydroxyethyl)pyridin-4-yl)piperidine-1-carboxamide]
Myosin Activation (AC20): + (+ represents myosin activation value AC20 > 5 μM)

CC(F)(C1CCN(C(=O)Nc2ccc(F)nc2)CC1)S(=O)(=O)c1ccc(C(F)(F)F)cc1 (stereo not drawn) [Compound 242, 4-(1-fluoro-1-((4-(trifluoromethyl)phenyl)sulfonyl)ethyl)-N-(6-fluoropyridin-3-yl)piperidine-1-carboxamide]
Myosin Activation (AC20): ++ (++ represents myosin activation value AC20 from 2 μM-5 μM)

O=C(Nc1ccnnc1)N1CCC(C(F)(F)S(=O)(=O)c2ccc(C3CC3)nc2)CC1 [Compound 60, 4-(((6-cyclopropylpyridin-3-yl)sulfonyl)difluoromethyl)-N-(pyridazin-4-yl)piperidine-1-carboxamide]
Myosin Activation (AC20): ++ (++ represents myosin activation value AC20 from 2 μM-5 μM)

O=C(Nc1cncs1)N1CCC(C2(S(=O)(=O)c3cccc(F)c3)CC2)CC1 [Compound 37, 4-(1-((3-fluorophenyl)sulfonyl)cyclopropyl)-N-(thiazol-5-yl)piperidine-1-carboxamide]
Myosin Activation (AC20): +++ (+++ represents myosin activation value AC20 < 2 μM)

Cc1ccc(NC(=O)N2CCC([C@@](C)(F)S(=O)(=O)c3cn(C)nc3C(F)F)CC2)cn1 [Compound 258, (S)-4-(1-((3-(difluoromethyl)-1-methyl-1H-pyrazol-4-yl)sulfonyl)-1-fluoroethyl)-N-(6-methylpyridin-3-yl)piperidine-1-carboxamide]
Myosin Activation (AC20): + (+ represents myosin activation value AC20 > 5 μM)

Cc1cc(C#N)ccc1S(=O)(=O)C(C)(C)C1CCN(C(=O)Nc2ccnnc2)CC1 [Compound 196, 4-(2-((4-cyano-2-methylphenyl)sulfonyl)propan-2-yl)-N-(pyridazin-4-yl)piperidine-1-carboxamide]
Myosin Activation (AC20): ++ (++ represents myosin activation value AC20 from 2 μM-5 μM)

CC(F)(C1CCN(C(=O)Nc2ccon2)CC1)S(=O)(=O)c1cccc(C#N)c1 (stereo not drawn) [Compound 282, 4-(1-((3-cyanophenyl)sulfonyl)-1-fluoroethyl)-N-(isoxazol-3-yl)piperidine-1-carboxamide]
Myosin Activation (AC20): ++ (++ represents myosin activation value AC20 from 2 μM-5 μM)

Cc1cc(S(=O)(=O)C(C)(C)C2CCN(C(=O)Nc3cnns3)CC2)n(C)n1 [Compound 188, 4-(2-((1,3-dimethyl-1H-pyrazol-5-yl)sulfonyl)propan-2-yl)-N-(1,2,3-thiadiazol-5-yl)piperidine-1-carboxamide]
Myosin Activation (AC20): +++ (+++ represents myosin activation value AC20 < 2 μM)

Cc1cc(NC(=O)N2CCC(C(C)(C)S(=O)(=O)c3cccc(F)c3)CC2)no1 [Compound 142, 4-(2-((3-fluorophenyl)sulfonyl)propan-2-yl)-N-(5-methylisoxazol-3-yl)piperidine-1-carboxamide]
Myosin Activation (AC20): + (+ represents myosin activation value AC20 > 5 μM)

CC(C)(C1(O)CCN(C(=O)Nc2ccnnc2)CC1)S(=O)(=O)c1cccc(F)c1 [Compound 163, 4-(2-((3-fluorophenyl)sulfonyl)propan-2-yl)-4-hydroxy-N-(pyridazin-4-yl)piperidine-1-carboxamide]
Myosin Activation (AC20): + (+ represents myosin activation value AC20 > 5 μM)

Cn1cc(S(=O)(=O)C(C)(F)C2CCN(C(=O)Nc3ccnnc3)CC2)c(C(F)(F)F)n1 (stereo not drawn) [Compound 281, 4-(1-fluoro-1-((1-methyl-3-(trifluoromethyl)-1H-pyrazol-4-yl)sulfonyl)ethyl)-N-(pyridazin-4-yl)piperidine-1-carboxamide]
Myosin Activation (AC20): ++ (++ represents myosin activation value AC20 from 2 μM-5 μM)

Cn1cc(S(=O)(=O)[C@@](C)(F)C2CCN(C(=O)Nc3cocn3)CC2)c(C(F)F)n1 [Compound 248, (R)-4-(1-((3-(difluoromethyl)-1-methyl-1H-pyrazol-4-yl)sulfonyl)-1-fluoroethyl)-N-(oxazol-4-yl)piperidine-1-carboxamide]
Myosin Activation (AC20): + (+ represents myosin activation value AC20 > 5 μM)

Cc1cc(S(=O)(=O)C(F)(F)C2CCN(C(=O)Nc3ccnnc3)CC2)n(C(C)C)n1 [Compound 87, 4-(difluoro((1-isopropyl-3-methyl-1H-pyrazol-5-yl)sulfonyl)methyl)-N-(pyridazin-4-yl)piperidine-1-carboxamide]
Myosin Activation (AC20): + (+ represents myosin activation value AC20 > 5 μM)

Cn1cc(NC(=O)N2CCC(C(C)(C)S(=O)(=O)c3cccc(F)c3)CC2)cn1 [Compound 139, 4-(2-((3-fluorophenyl)sulfonyl)propan-2-yl)-N-(1-methyl-1H-pyrazol-4-yl)piperidine-1-carboxamide]
Myosin Activation (AC20): + (+ represents myosin activation value AC20 > 5 μM)

O=C(Nc1ccnnc1)N1CCC(C(F)(F)S(=O)(=O)c2cccc(C(F)(F)F)c2)CC1 [Compound 49, 4-(difluoro((3-(trifluoromethyl)phenyl)sulfonyl)methyl)-N-(pyridazin-4-yl)piperidine-1-carboxamide]
Myosin Activation (AC20): ++ (++ represents myosin activation value AC20 from 2 μM-5 μM)

C[C@@](F)(C1CCN(C(=O)Nc2ccnnc2)CC1)S(=O)(=O)c1cccc(F)c1 [Compound 279, (S)-4-(1-fluoro-1-((3-fluorophenyl)sulfonyl)ethyl)-N-(pyridazin-4-yl)piperidine-1-carboxamide]
Myosin Activation (AC20): + (+ represents myosin activation value AC20 > 5 μM)

Cn1cnc(S(=O)(=O)C(C)(F)C2CCN(C(=O)Nc3ccnnc3)CC2)c1 (stereo not drawn) [Compound 272, 4-(1-fluoro-1-((1-methyl-1H-imidazol-4-yl)sulfonyl)ethyl)-N-(pyridazin-4-yl)piperidine-1-carboxamide]
Myosin Activation (AC20): + (+ represents myosin activation value AC20 > 5 μM)

CC(C)(C1CCN(C(=O)Nc2cnns2)CC1)S(=O)(=O)c1ccc(C#N)cc1 [Compound 179, 4-(2-((4-cyanophenyl)sulfonyl)propan-2-yl)-N-(1,2,3-thiadiazol-5-yl)piperidine-1-carboxamide]
Myosin Activation (AC20): +++ (+++ represents myosin activation value AC20 < 2 μM)

C[C@H](O)c1cc(NC(=O)N2CCC(C(F)(F)S(=O)(=O)c3cn(C)nc3C(F)F)CC2)ccn1 [Compound 99, (S)-4-(((3-(difluoromethyl)-1-methyl-1H-pyrazol-4-yl)sulfonyl)difluoromethyl)-N-(2-(1-hydroxyethyl)pyridin-4-yl)piperidine-1-carboxamide]
Myosin Activation (AC20): + (+ represents myosin activation value AC20 > 5 μM)

Cc1cc(C(F)(F)F)ccc1S(=O)(=O)C(F)(F)C1CCN(C(=O)Nc2ccnnc2)CC1 [Compound 65, 4-(difluoro((2-methyl-4-(trifluoromethyl)phenyl)sulfonyl)methyl)-N-(pyridazin-4-yl)piperidine-1-carboxamide]
Myosin Activation (AC20): ++ (++ represents myosin activation value AC20 from 2 μM-5 μM)

Cn1nccc1-c1ccc(S(=O)(=O)C(F)(F)C2CCN(C(=O)Nc3ccnnc3)CC2)cc1 [Compound 58, 4-(difluoro((4-(1-methyl-1H-pyrazol-5-yl)phenyl)sulfonyl)methyl)-N-(pyridazin-4-yl)piperidine-1-carboxamide]
Myosin Activation (AC20): + (+ represents myosin activation value AC20 > 5 μM)

COc1ncccc1S(=O)(=O)C(C)(F)C1CCN(C(=O)Nc2ccnnc2)CC1 (stereo not drawn) [Compound 55, 4-(1-fluoro-1-((2-methoxypyridin-3-yl)sulfonyl)ethyl)-N-(pyridazin-4-yl)piperidine-1-carboxamide]
Myosin Activation (AC20): ++ (++ represents myosin activation value AC20 from 2 μM-5 μM)
